Reference: article PMC3330111, “Computational Design of a PDZ Domain Peptide Inhibitor that Rescues CFTR Activity” (PLoS Computational Biology, 2012)
pKi: −log10 of the molar value. Entries after “also recorded” stand apart in the source; their conditions may differ. Values belong to the compound of their own block, whether it stands above or below them. Ends that are not written are not given here.

Key:
CAL PDZ domain [1] = target: T1, CAL PDZ domain (Homo sapiens, UniProt Q9HD26); assay: fluorescence polarization (FP) competition binding; conditions: for pKi: FP competition, compared with best previously known hexamer (iCAL35), read-out: Experimental Ki, mark †
From the text: The inhibitor dissociation constants of top- and poorly-ranked peptide sequences from the [drawing 176] CAL-CFTR design were experimentally determined. As a control, the best known peptide hexamer was also retested. The corresponding N-terminally acetylated peptides were purchased from NEO BioScience (Cambridge, MA) and the [drawing 177] values for the peptides were detected using fluorescence polarization (FP), using the method previously described in [59]. […] Each peptide inhibitor was serially diluted and the protein-peptide mixture was added to each dilution. Finally, the amount of competitive inhibition was tracked using residual fluorescence polarization at temperatures between [drawing 178] . Each [drawing 179] value is reported as an average of three FP experiments conducted on separate days along with the corresponding standard deviation.

CAL PDZ domain [2] = target: T1, CAL PDZ domain; assay: ProLib profile library SPOT array; type: binding; conditions: 10 µg/ml His-tagged CAL PDZ domain, anti-His/anti-mouse-HRP detection
Method: After the [drawing 124] predictions were calculated, the binding of C-termini peptides to CAL was also experimentally assessed using an additional SPOT array. The profile library array (ProLib; Fig. S3 in Text S1) was designed based on the following motif: bbbb [drawing 125] (B = permutation of a defined set of amino acids, b = mixture of 17 amino acids, without C, M and W). The defined set of amino acids were selected based on the HumLib results combined with substitutional analyses with [drawing 126] = A/C/D/E/F/I/K/L/M/N/Q/R/S/T/V/W/Y, [drawing 127] = S/T, [drawing 128] = A/C/D/E/F/I/K/L/M/N/Q/R/S/T/V/W/Y, [drawing 129] = I/L/V (Total number of peptides = 1734+22 internal control sequences). Incubation condition: [drawing 130] His-tagged CAL PDZ domain detected by anti-His (Sigma; 1∶2600)/anti-mouse-HRP (Calbiochem; 1∶2000) antibody sandwich.
Fig. S3. CAL binding data for ProLib spot array. We selected the amino acid prefer-ences of the last 4 C-terminal ligand residues based on their frequency deduced from the 6223-Humlib and the substitutional analysis. […] Incubation condition: 10 µg/ml His-tagged CAL PDZ domain detected by anti-His (Sigma; 1:2600)/anti-mouse-HRP (Calbiochem; 1:2000) antibody sand- […]

ΔF508-CFTR chloride flux [3] = assay: Ussing chamber chloride flux in CFBE-ΔF cells; type: cell-based, human; conditions: polarized CFBE-ΔF monolayers, 3.5 hour incubation; for improvement in chloride secretion with respect to control peptide kCAL31: peptide delivered with BioPORTER, change in short circuit current on CFTR-specific inhibitor after amiloride, forskolin, genistein
Method: Ussing chamber experiments were performed as described previously. Polarized monolayers of patient-derived bronchial epithelial cells, CFBE- [drawing 180] F cells (a generous gift of Dr. J.P. Clancy, [63]), were maintained in MEM with 2 mM l-glutamine, 10% fetal bovine serum, 50 units/mL penicillin, [drawing 181] streptomycin, [drawing 182] puromycin, [drawing 183] plasmocin, and [drawing 184] amphotericin B. Cells were grown at [drawing 185] in 5% [drawing 186] . Twenty four hours before treatment the cells were moved to MEM with only penicillin and streptomycin. Peptides were dissolved in DMSO and diluted to [drawing 187] in PBS. Peptide solutions were applied to cells following incubation with BioPORTER delivery reagent (Sigma). […] Following a 3.5 hour incubation with peptide, short circuit currents ( [drawing 188] ) were monitored in Ussing chambers. Following treatment with amiloride, forskolin, and genistein, ΔF508-CFTR chloride flux was measured as the change in [drawing 189] when the CFTR-specific inhibitor, [drawing 190] [64], [65], was applied to the cell monolayer. All measurements were performed at [drawing 191] .

ΔF508-CFTR chloride flux [4] = conditions: CFBE-ΔF cells, identical experimental conditions; ref [1]; cited from earlier work
From the text: While this effect is clearly statistically significant ( ), we also wished to assess its magnitude relative to the effect of known rescue compounds. The performance of kCAL01 was benchmarked using polarized human airway epithelial cells derived from a CF patient (stably expressing ΔF508-CFTR; CFBE- F cells). In these cells, CFTR rescue is more challenging than in heterologous cells, but the levels of rescue observed are more likely to reflect the physiological situation. Since CFTR modulation is extremely sensitive to experimental con ...

pKi (CAL PDZ domain [1]): > 4.85
Compound: Ac-WQKTRL [kCAL03, Ac-WQKTRL]

improvement in CAL binding affinity compared to iCAL35 (CAL PDZ domain [1]; FP): only a marginal improvement
CAL binding in ProLib array (CAL PDZ domain [2]): strongest binder
Compound: WQSTRL [HumLib01]

pKi (CAL PDZ domain [1]): > 4.85
Compound: Ac-WQKTRI [kCAL05, Ac-WQKTRI]

pKi (CAL PDZ domain [1]): > 4.85
Compound: Ac-WQFTRL [kCAL02, Ac-WQFTRL]

pKi (CAL PDZ domain [1]): > 4.85
Compound: Ac-WQRTRL [kCAL04, Ac-WQRTRL]

Further lines, the compound ahead of its results:

Compound: Ac-WQDSGI [kCAL31]
Experimental Ki (inhibitor dissociation constant) (CAL PDZ domain [1]; FP competition with labeled peptide, 25 mM Tris-HCl pH 8.5, 150 mM NaCl, 0.1 mg/mL bovine IgG, 0.5 mM Thesit, average of three FP experiments on separate days): no binding was detected; also recorded: no CAL binding detected

Compound: Ac-WQVTRV [kCAL01, Ac-WQVTRV]
binding efficiency (ratio of inhibitor potency, ΔG, to molecular mass) relative to F*-iCAL36 (CAL PDZ domain [1]): approximately twice
improvement in CAL binding affinity compared to iCAL35 (CAL PDZ domain [1]; FP): six-fold
improvement in CAL binding affinity over HumLib01 (CAL PDZ domain [1]; FP): six-fold
pKi (CAL PDZ domain [1]): > 4.85
fold higher affinity than any comparable natural ligand (CAL PDZ domain [1]; versus best known natural ligand ANGLMQTSKL): 9 fold
fold tighter binding to CAL than the CFTR C-terminus (CAL PDZ domain [1]; versus wild-type CFTR sequence TEEEVQDTRL): 170 fold
improvement in chloride secretion with respect to reference peptide iCAL35 (ΔF508-CFTR chloride flux [3]; BioPORTER delivery): 8%
improvement in chloride secretion with respect to control peptide kCAL31 (ΔF508-CFTR chloride flux [3]): 12%

Compound: COc1ccc(Cl)cc1Nc1nc(-c2sc(NC(=O)c3ccccc3)nc2C)cs1 [corr-4a]
increase in ΔF508-CFTR levels (ΔF508-CFTR chloride flux [4]): 15%

Compound: WQTSII [iCAL35, reference compound]
improvement in chloride secretion with respect to control peptide kCAL31 (ΔF508-CFTR chloride flux [3]): 4%
